Reference: patent US11434227B2, “Broad spectrum antibacterial activity of novel bisbenzimidazoles targeting topoisomerase IA and the synergistic composition of bisbenzimidazole with efflux pump inhibitors against pathogenic bacteria” (Jawaharlal Nehru University (JNU), priority 2016, dated 2022)
Values after ≈ are worked out from the molar mass of the structure shown.

Legend:
Escherichia coli 392 = test: Susceptibility (MIC50/MIC90), broth microdilution
Procedure: (§1) MICs were determined by the broth microdilution method according to CLSI methods (Clinical and Laboratory Standards Institute, 2005). Inoculants were incubated at 37° C. on cation adjusted Mueller Hinton (MH) Broth for 18 to 24 h. Compound were dissolved in media to 10 doubling dilutions from 128 to 0.125 μg/mL. All the bacterial strains were grown in 96 well plate with low evaporation lid (Falcon, Becton Dickinson) in presence of derivatives of benzimidazoles at 0.125, 0.25, 0.5, 1, 2, 4, 8, 16, 32, 64, 128, 256 μg/mL concentrations. […] Plates were read by Tecan Micro-plate Reader at 600 nm.

[1] = test system: Staphylococcus sp. (1016); test: Susceptibility (MIC50/MIC90), broth microdilution; conditions: Staphylococcus
Procedure: as §1

E. coli Topoisomerase IA = E. coli Topoisomerase IA (Escherichia coli, UniProt P06612); test: Topoisomerase IA cleavage and religation assay; format: biochemical; conditions: biochemical assays and computational studies
Procedure: Compounds at different concentrations were added to DNA cleavage reaction mixtures (20 μl) containing 50 mM TrisHCl, pH 7.5, 2 mM MgCl2 0.2 mM DTT, 0.5 mM EDTA, 30 μg/ml BSA, 25 μg/ml of pHOT1 having specific site for DNA, 40 units of E. coli Topoisomerase IA and ligands was incubated at 37° C. for 30 min. The reactions was then terminated by adding 1% SDS and 150 μg/m Proteinase K, and incubated further for 1 h at 37° C. The DNA samples was electrophoresed in 1% agarose gel in 0.5×TBE. Ethidium bromide at a finial concentration of 0.5 μg/ml was included in the gel to resolve slowly migrating nicked product (cleavable complex) from the supercoiled DNA molecules.

[2] = test system: Pseudomonas aeruginosa (MTCC 366); test: Susceptibility (MIC50/MIC90), broth microdilution; conditions: MTCC366
Procedure: as §1

E. coli ATCC 25922 = test: Mouse systemic infection (septicemia) model; format: in vivo, Balb/c mice
Procedure: Female Balb/c mice weighing 20-25 g of 6-8 weeks old were injected with E. coli ATCC 25922 (0.5×10^8 CFU in 0.1 mL saline) intraperitoneally. […] Each treatment or control group had 10 mice. Mortality was recorded daily for 7 days post infection.

E. coli 132^R = test: Susceptibility (MIC, PAE, MBC), broth microdilution; conditions: Escherichia coli
Procedure: as §1

E. coli K12 = test: Susceptibility of E. coli K12 and mutants (MIC90); conditions: Escherichia coli
Procedure: as §1

E. coli ATCC25922 = test: HN12b in combination with efflux pump inhibitors (CB method, FICI); conditions: for FICI / Interpretation: E. coli ATCC25922
Procedure: (§2) 96-well microtiter plates containing MIC25 concentrations of the Efflux pump inhibitor (CCCP, PAβN) and HN12b antimicrobial drugs alone and in CB combination were used. The MICs of the individual drugs HN12b, PAβN and CCCP (0.25 to 128 μg/ml) and of the combinations were determined using the broth microdilution technique as recommended by the CLSI. Briefly, the broth microdilution plates were inoculated with each test organism to yield the appropriate density (10^5 CFU/ml) in 100 μl Mueller-Hinton broth (MHB) and incubated for 24 h at 37° C. in ambient air. One well with no antibiotic was used as a positive growth control on each plate. Plates were read for visual turbidity, and results were recorded after 24 h of incubation at 37° C. in ambient air by using a magnifying mirror reader, as turbidity in wells indicated growth of the microorganism. The MIC was determined as the well in the microtiter plate with the lowest drug concentration at which there was no visible growth. […] MICAB was defined as the MIC of drug A in the presence of drug B; MICBA was defined as the MIC of drug B in the presence of drug A.
(§3) The fractional inhibitory concentration index (FICI) was calculated for each antibiotic in each combination by using the following formula: FICA+FICB=FICI, where FICA equals the MIC of drug A in combination divided by the MIC of drug A alone and FICB equals the MIC of drug B in combination divided by the MIC of drug B alone. The FICIs were interpreted as follows: FICI of ≤0.5 will correspond to synergy; FICI of >0.5 to ≤1 will correspond to additivity; FICI of >1 to ≤4 will correspond to no interaction (indifference), and FICI of >4 will correspond antagonism.

Enterococcus sp. (2105) = test: as above
Procedure: as §2, §3

E. coli K12 mutant ΔompC = test: Susceptibility of E. coli K12 and mutants (MIC90); conditions: Escherichia coli
Procedure: as §1

Enterococcus sp. (1365) = test: Susceptibility (MIC50/MIC90), broth microdilution
Procedure: as §1

Enterococcus sp.(1150) = test: Susceptibility (MIC50/MIC90), broth microdilution
Procedure: as §1

E. coli K12 mutant ΔompF = test: Susceptibility of E. coli K12 and mutants (MIC90); conditions: Escherichia coli
Procedure: as §1

Escherichia coli 385 = test: Susceptibility (MIC50/MIC90), broth microdilution
Procedure: as §1

[3] = molecular target: E. coli Topoisomerase IA (EcTopoIA) (Escherichia coli, UniProt P06612); test: Topoisomerase IA relaxation inhibition assay; format: biochemical; conditions: compared to DMA
Procedure: E. coli Topoisomerase IA (EcTopoIA) purified protein was diluted in buffer (10 mM Tris-HCl pH 8.0, 50 mM NaCl, 0.1 mg/mL gelatin, 0.5 mM MgCl2). Compounds were added in concentrations 1, 5, 10, 25 and 50 μM to 10 ng of the diluted enzyme present in 20 μL reaction volume. 500 ng of supercoiled pHOT plasmid DNA purified by Qiagen Maxiprep Kit was added. The mixture was incubated at 37° C. for 30 min before termination of the reaction and analysed by agarose gel electrophoresis without Ethidium bromide. The gels were then stained with ethidium bromide which was further photographed over UV transilluminator and analysed by performing densitometry.
Mechanism of inhibition was determined by performing relaxation assay in three different conditions. First, relaxation assay was done with increasing concentrations of Mg^2+ from 0 to 50 mM to find out optimum concentration of Mg^2+ required by EcTopo 1A. Second, relaxation assay was performed with increasing concentration of Mg^2+ in the presence of 5 μM compound and third, reaction we have increased the concentration of compound from 5 to 100 μM in a buffer with 25 mM of MgCl2.

K. planticola (1164) = test: HN12b in combination with efflux pump inhibitors (CB method, FICI)
Procedure: as §2, §3

Enterococcus sp. (1367) = test: Susceptibility (MIC50/MIC90), broth microdilution
Procedure: as §1

E. coli K12 mutant ΔtolC = test: Susceptibility of E. coli K12 and mutants (MIC90); conditions: Escherichia coli
Procedure: as §1

Staphylococcus sp. (982) = test: Susceptibility (MIC50/MIC90), broth microdilution
Procedure: as §1

E. coli 59^R = test: Susceptibility (MIC, PAE, MBC), broth microdilution; conditions: Escherichia coli
Procedure: as §1

[4] = Enterococcus sp. (2105), HN12b + CCCP
[5] = K. planticola (1164), HN12b + CCCP

Chain of E. coli Topoisomerase IA (EcTopoIA) (P06612 whole entry): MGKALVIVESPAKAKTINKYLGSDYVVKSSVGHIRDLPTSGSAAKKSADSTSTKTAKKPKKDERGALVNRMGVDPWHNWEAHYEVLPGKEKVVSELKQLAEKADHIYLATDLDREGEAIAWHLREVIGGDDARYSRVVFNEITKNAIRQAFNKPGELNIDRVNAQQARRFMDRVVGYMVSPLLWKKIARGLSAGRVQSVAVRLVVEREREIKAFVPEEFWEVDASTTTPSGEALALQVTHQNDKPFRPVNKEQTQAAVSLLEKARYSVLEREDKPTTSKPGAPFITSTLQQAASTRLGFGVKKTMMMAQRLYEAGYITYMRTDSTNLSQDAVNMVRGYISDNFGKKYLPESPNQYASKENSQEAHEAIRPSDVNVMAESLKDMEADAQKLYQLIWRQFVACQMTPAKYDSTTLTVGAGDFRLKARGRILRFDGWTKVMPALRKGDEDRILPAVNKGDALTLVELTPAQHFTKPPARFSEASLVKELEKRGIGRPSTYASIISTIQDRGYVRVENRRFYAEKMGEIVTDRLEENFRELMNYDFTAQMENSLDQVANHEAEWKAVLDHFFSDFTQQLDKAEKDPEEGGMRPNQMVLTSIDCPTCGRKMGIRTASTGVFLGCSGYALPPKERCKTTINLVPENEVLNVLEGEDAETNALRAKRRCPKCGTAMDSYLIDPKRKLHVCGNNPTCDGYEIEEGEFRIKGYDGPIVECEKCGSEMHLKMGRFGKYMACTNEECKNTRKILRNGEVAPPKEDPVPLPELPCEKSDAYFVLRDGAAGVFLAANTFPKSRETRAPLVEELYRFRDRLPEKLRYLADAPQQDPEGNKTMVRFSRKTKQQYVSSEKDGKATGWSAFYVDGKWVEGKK
Chain of E. coli Topoisomerase IA (P06612 whole entry): as above

`CCCN1CCN(c2nc3ccc(-c4nc5ccccc5[nH]4)cc3[nH]2)CC1` [HN12b, 2′-(4-propylpiperazine-1-yl)-1H, 3′H-2,5′-bibenzimidazole] showed an MIC50 (Escherichia coli 392) of 17.9 µg/mL (≈ 49.7 µM), an MIC90 (Escherichia coli 392) of 64.5 µg/mL (≈ 179 µM) and an MIC50 [1] of 0.57 µg/mL (≈ 1.58 µM). The MIC90 [1] was 4.57 µg/mL (≈ 12.7 µM), the “mechanism of inhibition (Mg^2+ chelation)” value (E. coli Topoisomerase IA) was “chelates Mg^2+ required for, the religation of DNA” and the MIC50 [2] was 19 µg/mL (≈ 52.7 µM). The MIC90 [2] was 128 µg/mL (≈ 355 µM), the ED50 (E. coli ATCC 25922; Escherichia coli, iv, 168 h, Septicemia, ATCC25922, single i.v. bolus, survival over 7 days) was 5 mg/kg and the in vivo efficacy (E. coli ATCC 25922; Septicaemia model, E. coli ATCC 25922) was “good in vivo efficacy”. For the same molecule, the MBC (E. coli 132^R) was 4 µg/mL (≈ 11.1 µM), the MIC50 (E. coli 132^R) was 2 µg/mL (≈ 5.55 µM) and the MIC90 (E. coli 132^R) was 3.5 µg/mL (≈ 9.71 µM). The MIC90 (E. coli K12) was 8 µg/mL (≈ 22.2 µM), the FICI (E. coli ATCC25922; HN12b + CCCP) was 0.3 and the Interpretation (E. coli ATCC25922; HN12b + CCCP) was “Synergy (FICI of ≤0.5 will correspond to synergy)”. For the same molecule, the FICI (E. coli ATCC25922; HN12b + PAβN) was 0.1, the Interpretation (E. coli ATCC25922; HN12b + PAβN) was “Synergy (FICI of ≤0.5 will correspond to synergy)” and the MIC90 (E. coli ATCC25922; Escherichia coli, ATCC25922) was 14 µg/mL. For the same molecule, the MIC90 (Enterococcus sp. (2105); Enterococcus) was 128 µg/mL, the FICI (Enterococcus sp. (2105); [4]) was 0.5 and the Interpretation (Enterococcus sp. (2105); [4]) was “Synergy (FICI of ≤0.5 will correspond to synergy)”. For the same molecule, the FICI (Enterococcus sp. (2105); Enterococcus sp. (2105), HN12b + PAβN) was 1, the MIC90 (E. coli K12 mutant ΔompC) was 3.8 µg/mL (≈ 10.5 µM) and the MIC50 (Enterococcus sp. (1365)) was 0.25 µg/mL (≈ 0.694 µM). The MIC90 (Enterococcus sp. (1365)) was 11.2 µg/mL (≈ 31.2 µM), the MIC50 (Enterococcus sp.(1150)) was 0.25 µg/mL (≈ 0.694 µM) and the MIC90 (Enterococcus sp.(1150)) was 13.2 µg/mL (≈ 36.8 µM). For the same molecule, the MIC90 (E. coli K12 mutant ΔompF) was 5.4 µg/mL (≈ 15 µM), the MIC50 (Escherichia coli 385) was 1.5 µg/mL (≈ 4.16 µM) and the MIC90 (Escherichia coli 385) was 3.3 µg/mL (≈ 9.15 µM). For the same molecule, the “Topoisomerase Inhibition activity” value [3] was “improved Topoisomerase Inhibition activity as compared to DMA”, the FICI (K. planticola (1164); [5]) was 0.5 and the Interpretation (K. planticola (1164); [5]) was “Synergy (FICI of ≤0.5 will correspond to synergy)”. It also gave an FICI (K. planticola (1164); K. planticola (1164), HN12b + PAβN) of 1, an MIC90 (K. planticola (1164); Klebsiella planticola) of 128 µg/mL and an MIC50 (Enterococcus sp. (1367)) of under 0.25 µg/mL. It also gave an MIC90 (Enterococcus sp. (1367)) of 11.4 µg/mL (≈ 31.5 µM), an MIC90 (E. coli K12 mutant ΔtolC) of 0.5 µg/mL (≈ 1.39 µM) and an MIC50 (Staphylococcus sp. (982)) of 0.44 µg/mL (≈ 1.22 µM). It also gave an MIC90 (Staphylococcus sp. (982)) of 7.44 µg/mL (≈ 20.6 µM), an MBC (E. coli 59^R) of 4 µg/mL (≈ 11.1 µM) and an MIC50 (E. coli 59^R) of 2 µg/mL (≈ 5.55 µM). It also gave an MIC90 (E. coli 59^R) of 3.4 µg/mL (≈ 9.43 µM).
